From patent EP0012729A1, “Therapeutic compositions containing as active compound a substituted acetic acid or its salt” ("IBIS" ISTITUTO BIOCHIMICO SPERIMENTALE S.p.A., priority 1978, dated 1980)

Tested on: Wistar rats
Experiment: Choleretic activity in the rat, bile fistula method
Type: in vivo
Conditions: for Peak choleresis time of appearance / Peak choleresis % increase / Duration index: 200 mg/kg p.o. (dose given for 1620 only); for Peak choleresis % increase: increase over controls as percentage of base choleresis; for Duration index: time for halving the maximum choleresis increase; for Flow: 200 mg/kg p.o.; for ml of bile flow ± s.e.: second series
Source text: It is known that the primary effect of a choleretic agent is to increase the bile flow and the quantity of solid substances excreted with the bile. A good choleretic must provide this effect in a sufficiently intense and prolonged manner. In addition, as in the case of all drugs, it must have low acute toxicity and good general tolerability, but in particular must be free from toxic effects on the organ on which it is required to act, i.e. the liver, whether this is in a normal or pathological state. The analysis of the new product in comparison with the best known products for the same therapeutic use has therefore been focused on these aspects. The choleretic activity of the new product has been determined in the rat by using the bile fistula method. Wistar rats of both sexes and having a weight of between 180 and 240 g were used.
The animals, which were kept fasting for 12 hours but with free access to water, were narcotised by ethyl urethane in a dose of 1 g/kg by intra peritoneal or intramuscular injection.
After binding the animals to the retention bed, a median laparatomy was carried out, and when the bile duct had been isolated a cannula needle was inserted into it. A polythene tube was then inserted into those ani mals which were to receive the products intraduodenally, after which a su ture was carried out on the abdominal wall, and the bile was allowed to discharge for 30 minutes after inserting the cannula in the bile duct, so as to allow the discharge to become normal. The bile was then collec ted for one hour.
Having determined the volume of bile discharged during this first hour of collection (base volume), the products under examination were administered at the predetermined doses and by the predetermined methods. The bile excreted by the individual animals was then collected over each hour for a further six hours.
During the experiments, the animals were kept at ambient temperature of about 22°C, and at regular intervals of two hours received 10 ml/kg of physiological solution s.c.
The liquids were administered at a temperature of 37°C.
The bile flow and cholesterol excretion were determined on those bile fractions excreted by the animals over each hour starting from the base hour until the end of the experiment
The dry residue (R.So) was determined on the bile fraction excreted during the base hour and on the total bile fractions excreted during the sub sequent hours. For practical reasons, the determination of the dry residue and of the cholesterol (carried out by the Sperry & Webb method) were carried out on the pool of bile excreted by the entire group of animals subjected to the same treatment instead of on the bile fractions excreted by the individual animals (which was sometimes insufficient for determining the cholesterol).
In compiling the graphs, the differences between the choleresis in the treated animals and that in the controls was calculated over the considered time intervals, and expressed as a percentage of the base choleresis. For this calculation, the following formula was used: [formula] where Cn and C' represent the choleresis (in ml/kg/h for the bile flow, and in mg/kg/h for the dry residue) determined over the considered time interval for the group of treated animals and the group of controls respectively. Cb and C'b represent the base choleresis in the group of treated animals and group of controls respectively.
This index was calculated as the time for halving the maximum choleresis increase recorded under their effect.

Row | Compound | Peak choleresis time of appearance | Peak choleresis % increase | Duration index | Flow (0 (base hour)) | Flow (1h) | Flow (2h) | Flow (3h) | Flow (4h) | Flow (5h) | Flow (6h) | further results
1 | CCC(C(=O)O)C1(O)CCC(c2ccccc2)CC1 (stereo not drawn) [α-(1-hydroxy--4-phenylcyclohexyl)butyric acid] | 1st hour | 105% | 180' | 2,70±0,25 ml/kg/h | 5,60±0,51 ml/kg/h | 5,42±0,47 ml/kg/h | 4,63±0,28 ml/kg/h | 3,68±0,18 ml/kg/h | 3,05±0,12 ml/kg/h | 2,70±0,17 ml/kg/h | ml of bile flow ± s.e. (oral by gastric probe 50 mg/kg, 0 (base values)): 2,8±0,22 ml; ml of bile flow ± s.e. (oral by gastric probe 50 mg/kg, 1 h): 3,2±0,11 ml; ml of bile flow ± s.e. (oral by gastric probe 50 mg/kg, 2 h): 3,0±0,12 ml; ml of bile flow ± s.e. (oral by gastric probe 50 mg/kg, 3 h): 2,9±0,10 ml; ml of bile flow ± s.e. (oral by gastric probe 50 mg/kg, 4 h): 2,8±0,12 ml; ml of bile flow ± s.e. (oral by gastric probe 50 mg/kg, 5 h): 2,5±0,10 ml; ml of bile flow ± s.e. (oral by gastric probe 50 mg/kg, 6 h): 2,0±0,11 ml; ml of bile flow ± s.e. (oral by gastric probe 100 mg/kg, 0 (base values)): 2,6±0,17 ml; ml of bile flow ± s.e. (oral by gastric probe 100 mg/kg, 1 h): 3,7±0,13 ml; ml of bile flow ± s.e. (oral by gastric probe 100 mg/kg, 2 h): 3,6±0,14 ml; ml of bile flow ± s.e. (oral by gastric probe 100 mg/kg, 3 h): 3,4±0,11 ml; ml of bile flow ± s.e. (oral by gastric probe 100 mg/kg, 4 h): 3,0±0,11 ml; ml of bile flow ± s.e. (oral by gastric probe 100 mg/kg, 5 h): 2,9±0,13 ml; ml of bile flow ± s.e. (oral by gastric probe 100 mg/kg, 6 h): 2,1±0,13 ml
2 | dihydroxybutylether [Dihydroxydibutyl-ether] | 1st hour | 49% | 45' | 3,36±0,19 ml/kg/h | 5,10±0,23 ml/kg/h | 3,79±0,18 ml/kg/h | 3,08±0,15 ml/kg/h | 2,68±0,15 ml/kg/h | 1,97±0,05 ml/kg/h | 1,77±0,11 ml/kg/h | 
